# Data: ChEMBL document CHEMBL4308841, “Synthesis, in vitro antiproliferative activity, and kinase inhibitory effects of pyrazole-containing diarylureas and diarylamides” (Eur J Med Chem, 2018)
# What was measured:
# [1] = system: LOX IMVI; assay: Growth inhibition of human LOXIMVI cells assessed as cell growth at 1 uM incubated for 48 hrs by sulforhodamine B assay relative to control; format: functional; details: read-out: Activity
# [2] = system: SK-MEL-28; assay: Growth inhibition of human SK-MEL-28 cells incubated for 48 hrs by sulforhodamine B assay; format: functional, cell-based; details: SK-MEL-28, 48 h
# [3] = system: OVCAR-5; assay: Growth inhibition of human OVCAR5 cells assessed as cell growth at 0.01 uM incubated for 48 hrs by sulforhodamine B assay relative to control; format: functional; details: OVCAR-5, 48 h, read-out: Activity
# [4] = system: LOX IMVI; assay: Growth inhibition of human LOXIMVI cells incubated for 48 hrs by sulforhodamine B assay; format: functional
# [5] = system: SR; assay: Growth inhibition of human SR cells incubated for 48 hrs by sulforhodamine B assay; format: functional, cell-based
# [6] = system: 786-0; assay: Growth inhibition of human 786-0 cells assessed as cell growth at 0.01 uM incubated for 48 hrs by sulforhodamine B assay relative to control; format: functional; details: 786-0, 48 h, read-out: Activity
# [7] = system: M14; assay: Growth inhibition of human M14 cells assessed as cell growth at 100 uM incubated for 48 hrs by sulforhodamine B assay relative to control; format: functional; details: M14, 48 h, read-out: Activity
# [8] = system: NCI-H322M; assay: Growth inhibition of human NCI-H322M cells assessed as cell growth at 100 uM incubated for 48 hrs by sulforhodamine B assay relative to control; format: functional; details: read-out: Activity
# [9] = system: HT-29; assay: Growth inhibition of human HT-29 cells assessed as cell growth at 1 uM incubated for 48 hrs by sulforhodamine B assay relative to control; format: functional; details: HT-29, 48 h, read-out: Activity
# [10] = system: U-251; assay: Growth inhibition of human U251 cells incubated for 48 hrs by sulforhodamine B assay; format: functional, cell-based; details: U-251, 48 h
# [11] = system: A498; assay: Growth inhibition of human A498 cells assessed as cell growth at 1 uM incubated for 48 hrs by sulforhodamine B assay relative to control; format: functional; details: A498, 48 h, read-out: Activity
# [12] = system: MDA-MB-435; assay: Growth inhibition of human MDA-MB-435 cells assessed as cell growth at 0.1 uM incubated for 48 hrs by sulforhodamine B assay relative to control; format: functional; details: MDA-MB-435, 48 h, read-out: Activity
# [13] = system: SN12C; assay: Growth inhibition of human SN12C cells assessed as cell growth at 0.1 uM incubated for 48 hrs by sulforhodamine B assay relative to control; format: functional; details: read-out: Activity
# [14] = system: IGROV-1; assay: Growth inhibition of human IGROV1 cells incubated for 48 hrs by sulforhodamine B assay; format: functional, cell-based; details: IGROV-1, 48 h
# [15] = system: SW-620; assay: Growth inhibition of human SW620 cells assessed as cell growth at 0.01 uM incubated for 48 hrs by sulforhodamine B assay relative to control; format: functional; details: SW-620, 48 h, read-out: Activity
# [16] = system: RPMI-8226; assay: Growth inhibition of human RPMI8226 cells assessed as cell growth at 0.01 uM incubated for 48 hrs by sulforhodamine B assay relative to control; format: functional; details: RPMI-8226, 48 h, read-out: Activity
# [17] = system: NCI-H322M; assay: Growth inhibition of human NCI-H322M cells incubated for 48 hrs by sulforhodamine B assay; format: functional, cell-based
# [18] = system: SK-MEL-5; assay: Growth inhibition of human SK-MEL-5 cells assessed as cell growth at 1 uM incubated for 48 hrs by sulforhodamine B assay relative to control; format: functional; details: SK-MEL-5, 48 h, read-out: Activity
# [19] = system: Hs-578T; assay: Growth inhibition of human Hs578T cells assessed as cell growth at 0.1 uM incubated for 48 hrs by sulforhodamine B assay relative to control; format: functional; details: read-out: Activity
# [20] = system: NCI-H322M; assay: Growth inhibition of human NCI-H322M cells assessed as cell growth at 0.01 uM incubated for 48 hrs by sulforhodamine B assay relative to control; format: functional; details: read-out: Activity
# [21] = system: IGROV-1; assay: Growth inhibition of human IGROV1 cells assessed as cell growth at 0.01 uM incubated for 48 hrs by sulforhodamine B assay relative to control; format: functional; details: IGROV-1, 48 h, read-out: Activity
# [22] = system: T47D; assay: Growth inhibition of human T47D cells assessed as cell growth at 0.01 uM incubated for 48 hrs by sulforhodamine B assay relative to control; format: functional; details: read-out: Activity
# [23] = system: Malme-3M; assay: Growth inhibition of human MALME-3M cells incubated for 48 hrs by sulforhodamine B assay; format: functional, cell-based
# [24] = system: UACC-257; assay: Growth inhibition of human UACC257 cells assessed as cell growth at 1 uM incubated for 48 hrs by sulforhodamine B assay relative to control; format: functional; details: UACC-257, 48 h, read-out: Activity
# [25] = system: OVCAR-8; assay: Growth inhibition of human OVCAR8 cells assessed as cell growth at 100 uM incubated for 48 hrs by sulforhodamine B assay relative to control; format: functional; details: OVCAR-8, 48 h, read-out: Activity
# [26] = system: MOLT-4; assay: Growth inhibition of human MOLT4 cells assessed as cell growth at 1 uM incubated for 48 hrs by sulforhodamine B assay relative to control; format: functional; details: MOLT-4, 48 h, read-out: Activity
# [27] = system: CAKI-1; assay: Growth inhibition of human Caki1 cells assessed as cell growth at 1 uM incubated for 48 hrs by sulforhodamine B assay relative to control; format: functional; details: CAKI-1, 48 h, read-out: Activity
# [28] = system: CAKI-1; assay: Growth inhibition of human Caki1 cells assessed as cell growth at 100 uM incubated for 48 hrs by sulforhodamine B assay relative to control; format: functional; details: CAKI-1, 48 h, read-out: Activity
# [29] = system: SNB-75; assay: Growth inhibition of human SNB75 cells incubated for 48 hrs by sulforhodamine B assay; format: functional, cell-based; details: SNB-75, 48 h
# [30] = read-out: LC50 (the source's name)
# [31] = read-out: pLC50 (the source's name) (converted)
smiles,measurement,setting,value
COc1cc(Cl)cc(-c2nn(-c3cccc(NC(=O)Nc4ccc(Cl)c(C(F)(F)F)c4)c3)cc2-c2ccncc2)c1,growth at 1 µM,[1],61%
same,GI50,[2]; read-out: GI50,2410 nM
same,CC50,[2]; [30],5.41 µM
same,TGI,[2]; read-out: TGI,84.1 µM
same,GI50,[2]; read-out: pGI50 (converted),2400 nM
same,CC50,[2]; [31],53.7 µM
same,TGI,[2]; read-out: pTGI (converted),4.17 µM
same,growth at 0.01 µM,[3],54%
same,GI50,[4]; read-out: GI50,1230 nM
same,TGI,[4]; read-out: TGI,31.4 µM
same,GI50,[4]; read-out: pGI50 (converted),1230 nM
same,GI50,[5]; read-out: GI50,1060 nM
same,CC50,[5]; [30],> 100 µM
same,TGI,[5]; read-out: TGI,43.8 µM
same,GI50,[5]; read-out: pGI50 (converted),1070 nM
same,CC50,[5]; [31],> 100 µM
same,TGI,[5]; read-out: pTGI (converted),4.37 µM
same,growth at 0.01 µM,[6],96%
same,growth at 100 µM,[7],-70%
same,growth at 100 µM,[8],-22%
same,growth at 1 µM,[9],55%
same,IC50,[10],730 nM
same,GI50,[10]; read-out: GI50,729 nM
same,CC50,[10]; [30],5 µM
same,TGI,[10]; read-out: TGI,21.1 µM
same,GI50,[10]; read-out: pGI50 (converted),724 nM
same,CC50,[10]; [31],5.01 µM
same,TGI,[10]; read-out: pTGI (converted),2.09 µM
same,growth at 1 µM,[11],78%
same,growth at 0.1 µM,[12],93%
same,growth at 0.1 µM,[13],100%
same,GI50,[14]; read-out: GI50,3.2 µM
same,CC50,[14]; [30],> 100 µM
same,TGI,[14]; read-out: TGI,29.1 µM
same,GI50,[14]; read-out: pGI50 (converted),3.24 µM
same,CC50,[14]; [31],> 100 µM
same,TGI,[14]; read-out: pTGI (converted),3.55 µM
same,growth at 0.01 µM,[15],98%
same,growth at 0.01 µM,[16],97%
same,GI50,[17]; read-out: GI50,3.38 µM
same,CC50,[17]; [30],> 100 µM
same,TGI,[17]; read-out: TGI,24 µM
same,GI50,[17]; read-out: pGI50 (converted),3.39 µM
same,CC50,[17]; [31],> 100 µM
same,TGI,[17]; read-out: pTGI (converted),25.1 µM
same,growth at 1 µM,[18],83%
same,growth at 0.1 µM,[19],90%
same,growth at 0.01 µM,[20],96%
same,growth at 0.01 µM,[21],112%
same,growth at 0.01 µM,[22],98%
same,GI50,[23]; read-out: GI50,1210 nM
same,CC50,[23]; [30],> 100 µM
same,TGI,[23]; read-out: TGI,85 µM
same,GI50,[23]; read-out: pGI50 (converted),1700 nM
same,CC50,[23]; [31],> 100 µM
same,TGI,[23]; read-out: pTGI (converted),3.16 µM
same,growth at 1 µM,[24],83%
same,growth at 100 µM,[25],-33%
same,growth at 1 µM,[26],58%
same,growth at 1 µM,[27],45%
same,growth at 100 µM,[28],-40%
same,GI50,[29]; read-out: GI50,1770 nM
same,CC50,[29]; [30],> 100 µM
same,TGI,[29]; read-out: TGI,11.1 µM
same,GI50,[29]; read-out: pGI50 (converted),1780 nM
same,CC50,[29]; [31],> 100 µM
same,TGI,[29]; read-out: pTGI (converted),11.2 µM
